Data from patent US6849712B1, “Peptides with β1 integrin subunit dependent cell adhesion modulating activity” (Regents of the University of Minnesota, priority 1998, dated 2005).
Where no end group is shown, it is not given here.

Tests used:
[1] = molecular target: T1, α5β1 integrin (Homo sapiens, UniProt P05556+P08648); experiment: Inhibition of α5β1 integrin dependent Mn+2 stimulated adhesion of K562 cells to fibronectin (FN); type: cell-based
T1 construct: erythroleukemic cell line K562, which expresses α5β1 but not α4β1 integrin; endogenous in cells; host or cells: K562 cells
Method: The cell adhesion assay was carried out as described above. […] Each data point represents the mean of triplicate determinations and the error bars represent the standard deviation of the mean. The solid black line represents adhesion to the negative control substrate, BSA.

[2] = test system: α2β1 and α3β1 integrin; experiment: Inhibition of α2β1, α3β1 integrin dependent human melanoma M14#5 cell adhesion to laminin and type IV collagen; type: cell-based; settings: 0.5 mg/ml peptide (0.42 mM), 30 minutes
Method: An experiment was conducted to examine the ability of FN-C/H V+Y (SEQ ID NO:1) to inhibit α2β1, α3β1 integrin dependent cell adhesion using an assay based on human melanoma cells (M14#5).
Laminin, type IV collagen and BSA were coated overnight in a 96 well microtiter plate at 10 μg/ml and blocked with 0.3% BSA. M14#5 cells were preincubated with 0.5 mg/ml of peptide (equivalent to 0.42 mM FN-C/H V and scrambled FN-C/H V and 0.17 mM CSI) and allowed to adhere to substrates for 30 minutes.

[3] = molecular target: T2, α1β2 (LFA-1) integrin (Homo sapiens, UniProt P05107+P20701); experiment: α1β2 (LFA-1) integrin dependent M16B adhesion to rICAM; type: cell-based
T2 construct: the B-cell line M16B (which both express functional α4β1 and α1β2 integrin); endogenous in cells; host or cells: M16B B-cell line
Method: To determine whether inhibition of adhesion by soluble FN-C/H V is specific for b1 integrins, the ability of this peptide to inhibit β2 integrin-dependent adhesion was also evaluated.

[4] = test system: peripheral blood mononuclear cells and spleen cells; settings: reported, Wahl et al.; cited from earlier work
[5] = in vivo rat model, reported; cited from earlier work
[6] = test system: VCAM; settings: reported; cited from earlier work
[7] = molecular target: α4β1 integrin (Homo sapiens, UniProt P05556+P13612); experiment: α4β1 integrin-dependent Mn+2 stimulated M16B adhesion to rCS1; type: cell-based; set-up: endogenous in cells; settings: soluble peptide
α4β1 integrin, sequence (P13612 34-1032): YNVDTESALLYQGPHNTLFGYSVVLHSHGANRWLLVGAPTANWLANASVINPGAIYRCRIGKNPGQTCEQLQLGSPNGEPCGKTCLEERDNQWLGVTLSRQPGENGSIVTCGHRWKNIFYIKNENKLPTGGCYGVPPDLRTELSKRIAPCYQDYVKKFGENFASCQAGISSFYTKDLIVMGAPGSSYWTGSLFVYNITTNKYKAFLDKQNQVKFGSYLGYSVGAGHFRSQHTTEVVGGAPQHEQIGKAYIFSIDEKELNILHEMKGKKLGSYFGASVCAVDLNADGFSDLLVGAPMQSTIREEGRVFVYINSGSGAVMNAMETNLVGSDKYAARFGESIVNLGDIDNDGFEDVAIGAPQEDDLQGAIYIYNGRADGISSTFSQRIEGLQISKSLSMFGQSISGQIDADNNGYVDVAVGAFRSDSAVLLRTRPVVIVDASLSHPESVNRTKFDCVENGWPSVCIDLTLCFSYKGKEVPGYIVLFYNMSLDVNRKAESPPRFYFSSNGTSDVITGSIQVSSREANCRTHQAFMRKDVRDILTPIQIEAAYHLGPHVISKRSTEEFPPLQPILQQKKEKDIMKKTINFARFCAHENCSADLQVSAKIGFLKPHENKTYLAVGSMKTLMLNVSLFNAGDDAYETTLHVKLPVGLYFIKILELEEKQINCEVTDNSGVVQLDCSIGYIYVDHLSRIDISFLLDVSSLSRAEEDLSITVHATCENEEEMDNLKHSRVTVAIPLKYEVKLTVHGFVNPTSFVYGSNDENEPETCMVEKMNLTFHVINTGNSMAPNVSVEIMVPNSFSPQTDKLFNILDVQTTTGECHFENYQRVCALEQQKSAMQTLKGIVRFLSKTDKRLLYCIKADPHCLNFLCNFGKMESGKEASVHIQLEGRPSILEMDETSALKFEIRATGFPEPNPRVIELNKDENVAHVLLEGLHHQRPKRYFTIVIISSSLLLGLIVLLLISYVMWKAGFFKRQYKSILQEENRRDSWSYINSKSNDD
α4β1 integrin, sequence (P05556 21-798): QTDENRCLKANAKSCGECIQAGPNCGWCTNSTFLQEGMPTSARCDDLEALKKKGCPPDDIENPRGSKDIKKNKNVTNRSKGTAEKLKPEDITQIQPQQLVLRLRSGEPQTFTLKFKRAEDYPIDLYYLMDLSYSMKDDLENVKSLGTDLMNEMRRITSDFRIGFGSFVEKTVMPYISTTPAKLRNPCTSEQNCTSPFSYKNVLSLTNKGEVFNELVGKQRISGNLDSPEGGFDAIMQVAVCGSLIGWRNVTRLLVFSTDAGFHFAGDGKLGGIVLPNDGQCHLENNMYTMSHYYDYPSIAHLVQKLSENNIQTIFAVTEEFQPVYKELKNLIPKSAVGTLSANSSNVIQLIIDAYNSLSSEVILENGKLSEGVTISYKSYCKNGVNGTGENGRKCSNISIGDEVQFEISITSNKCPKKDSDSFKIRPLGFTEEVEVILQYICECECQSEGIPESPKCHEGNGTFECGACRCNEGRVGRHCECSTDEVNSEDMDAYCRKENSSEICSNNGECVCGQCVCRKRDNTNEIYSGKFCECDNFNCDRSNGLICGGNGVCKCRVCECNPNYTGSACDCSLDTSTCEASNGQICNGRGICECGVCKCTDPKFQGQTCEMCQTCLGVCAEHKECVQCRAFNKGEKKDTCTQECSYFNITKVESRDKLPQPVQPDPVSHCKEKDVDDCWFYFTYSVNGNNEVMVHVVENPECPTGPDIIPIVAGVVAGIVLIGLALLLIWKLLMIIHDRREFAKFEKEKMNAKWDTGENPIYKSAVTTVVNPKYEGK

T1 sequence (P08648 42-894 limits assumed): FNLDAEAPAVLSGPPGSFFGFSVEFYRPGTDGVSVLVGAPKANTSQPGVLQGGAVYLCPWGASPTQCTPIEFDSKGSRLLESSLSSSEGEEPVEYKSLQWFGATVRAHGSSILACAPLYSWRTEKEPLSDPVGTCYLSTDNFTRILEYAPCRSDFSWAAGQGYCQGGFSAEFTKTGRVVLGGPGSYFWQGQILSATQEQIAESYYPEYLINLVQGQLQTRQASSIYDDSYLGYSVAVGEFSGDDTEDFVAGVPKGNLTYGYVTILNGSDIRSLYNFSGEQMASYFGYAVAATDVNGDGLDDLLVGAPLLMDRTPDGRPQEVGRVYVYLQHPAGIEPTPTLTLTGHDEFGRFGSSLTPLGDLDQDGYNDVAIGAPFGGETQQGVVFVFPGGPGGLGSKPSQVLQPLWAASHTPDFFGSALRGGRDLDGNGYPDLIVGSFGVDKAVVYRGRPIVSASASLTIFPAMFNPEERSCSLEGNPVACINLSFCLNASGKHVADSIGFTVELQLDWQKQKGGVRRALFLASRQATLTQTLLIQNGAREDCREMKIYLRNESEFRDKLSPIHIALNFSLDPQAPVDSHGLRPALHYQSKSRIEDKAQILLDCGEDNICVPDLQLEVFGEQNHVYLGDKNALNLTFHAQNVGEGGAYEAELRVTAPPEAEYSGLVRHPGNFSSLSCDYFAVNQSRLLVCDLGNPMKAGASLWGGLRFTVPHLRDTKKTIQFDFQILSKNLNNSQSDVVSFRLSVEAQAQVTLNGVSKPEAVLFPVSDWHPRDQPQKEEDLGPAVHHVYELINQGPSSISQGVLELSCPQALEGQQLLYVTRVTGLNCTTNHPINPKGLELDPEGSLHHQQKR
T1 sequence (P08648 895-1049 limits assumed): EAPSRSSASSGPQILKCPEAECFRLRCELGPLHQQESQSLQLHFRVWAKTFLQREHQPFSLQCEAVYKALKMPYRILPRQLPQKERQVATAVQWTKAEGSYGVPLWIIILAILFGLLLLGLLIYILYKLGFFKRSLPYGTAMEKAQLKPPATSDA
T1 sequence (P05556 21-798): as the sequence (P05556 21-798) above
T2 sequence (P20701 26-1170): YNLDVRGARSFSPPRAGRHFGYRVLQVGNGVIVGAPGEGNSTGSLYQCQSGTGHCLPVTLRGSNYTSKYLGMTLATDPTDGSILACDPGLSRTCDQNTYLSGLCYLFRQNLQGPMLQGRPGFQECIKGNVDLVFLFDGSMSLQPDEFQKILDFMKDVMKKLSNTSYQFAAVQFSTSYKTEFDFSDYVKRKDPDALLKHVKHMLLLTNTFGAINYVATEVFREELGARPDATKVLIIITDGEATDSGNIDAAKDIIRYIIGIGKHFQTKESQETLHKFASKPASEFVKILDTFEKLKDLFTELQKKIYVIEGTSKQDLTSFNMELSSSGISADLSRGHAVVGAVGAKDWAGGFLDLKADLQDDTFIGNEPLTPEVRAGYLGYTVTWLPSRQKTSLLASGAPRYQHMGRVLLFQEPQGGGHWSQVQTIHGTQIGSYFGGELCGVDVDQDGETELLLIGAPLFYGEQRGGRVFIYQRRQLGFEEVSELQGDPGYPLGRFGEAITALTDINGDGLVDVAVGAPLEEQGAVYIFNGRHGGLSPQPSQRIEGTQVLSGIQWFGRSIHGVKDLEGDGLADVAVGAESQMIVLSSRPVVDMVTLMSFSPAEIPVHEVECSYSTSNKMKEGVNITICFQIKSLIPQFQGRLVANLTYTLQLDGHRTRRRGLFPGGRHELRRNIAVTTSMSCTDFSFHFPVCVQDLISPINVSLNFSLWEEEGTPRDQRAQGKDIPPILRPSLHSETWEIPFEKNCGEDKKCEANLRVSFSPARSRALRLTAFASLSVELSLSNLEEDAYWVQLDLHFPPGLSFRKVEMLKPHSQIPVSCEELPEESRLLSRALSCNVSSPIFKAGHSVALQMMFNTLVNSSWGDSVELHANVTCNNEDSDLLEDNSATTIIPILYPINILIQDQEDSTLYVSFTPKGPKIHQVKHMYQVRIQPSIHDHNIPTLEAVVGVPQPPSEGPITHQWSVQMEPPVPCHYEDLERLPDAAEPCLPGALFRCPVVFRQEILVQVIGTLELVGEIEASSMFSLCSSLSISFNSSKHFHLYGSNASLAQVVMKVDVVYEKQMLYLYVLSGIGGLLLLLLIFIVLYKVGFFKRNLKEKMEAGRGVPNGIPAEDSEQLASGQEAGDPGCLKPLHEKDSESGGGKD
T2 sequence (P05107 23-769): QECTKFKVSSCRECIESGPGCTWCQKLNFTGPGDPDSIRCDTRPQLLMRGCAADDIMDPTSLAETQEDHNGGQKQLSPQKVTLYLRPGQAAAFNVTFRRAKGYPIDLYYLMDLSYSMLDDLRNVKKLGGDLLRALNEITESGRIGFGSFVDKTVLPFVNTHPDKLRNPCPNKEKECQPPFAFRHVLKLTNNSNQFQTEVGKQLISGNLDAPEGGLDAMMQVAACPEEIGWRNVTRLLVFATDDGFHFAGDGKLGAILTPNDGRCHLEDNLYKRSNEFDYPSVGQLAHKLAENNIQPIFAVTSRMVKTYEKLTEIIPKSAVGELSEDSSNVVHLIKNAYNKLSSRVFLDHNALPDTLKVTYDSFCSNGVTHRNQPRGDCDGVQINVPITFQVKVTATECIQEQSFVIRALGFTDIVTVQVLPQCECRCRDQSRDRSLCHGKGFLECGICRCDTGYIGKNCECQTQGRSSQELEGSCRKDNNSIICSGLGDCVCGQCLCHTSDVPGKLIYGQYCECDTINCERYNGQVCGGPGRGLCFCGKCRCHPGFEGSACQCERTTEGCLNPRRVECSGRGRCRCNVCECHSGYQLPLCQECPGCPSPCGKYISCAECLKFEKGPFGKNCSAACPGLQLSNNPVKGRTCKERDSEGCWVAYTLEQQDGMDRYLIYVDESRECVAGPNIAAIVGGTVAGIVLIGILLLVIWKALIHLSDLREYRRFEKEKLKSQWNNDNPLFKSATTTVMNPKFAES

Substance	inhibition of K562 adhesion to FN at the maximal concentration tested ([1]; 0.84 mM peptide, K562 cells stimulated with 1 mM MnCl2)	IC50 ([1]; K562 cells stimulated with 1 mM MnCl2, adhesion to FN, read-out: half-maximal inhibitory concentration) [µM]	inhibition of M14#5 cell adhesion to laminin ([2]; laminin coated substrate)	inhibition of M14#5 cell adhesion to type IV collagen ([2]; type IV collagen coated substrate)	inhibition of M16B adhesion to rICAM [3]	inhibition of leukocyte adhesion to fibronectin in vitro [4]	anti-inflammatory properties [5]	inhibition of adhesion to VCAM [6]	inhibition of M16B adhesion to rCS1 [7]
WQPPRARIY-OH [SEQ ID NO:1]	completely inhibited	200	inhibited	inhibited	not inhibited	inhibit leukocyte adhesion to fibronectin in vitro	exhibit anti-inflammatory properties	inhibit adhesion to VCAM	completely inhibited
DELPQLVTLPHPNLHGPEILDVPST (listed as Homo sapiens) [CS1, fibronectin residues 1961-1985]									completely inhibited
YEKPGSPPREV-VPRPRPGVY (YEKPGSPPREVVPRPRPGVY; listed as Homo sapiens) [FN-C/H I+Y]						inhibit leukocyte adhesion to fibronectin in vitro	exhibit anti-inflammatory properties		
